Results from publication PMC5061470, “Promiscuous targeting of bromodomains by bromosporine identifies BET proteins as master regulators of primary transcription response in leukemia” (Science Advances, 2016).
“Also recorded” adds a separate entry of the source.

Assays:
NCI-60 tumor cell lines = type: cell-based, human
[1] = test system: panel of 42 recombinant biotinylated BRDs; type: binding, human
[2] = test system: Ca2+ channel (L, verapamil site) (phenylalkylamine); type: binding
V2 (h) = V2 (h) (Homo sapiens, UniProt P30518); test: biochemical; details: read-out: % Inhibition of Control Specific Binding
Sequence of V2 (h) (P30518 whole entry): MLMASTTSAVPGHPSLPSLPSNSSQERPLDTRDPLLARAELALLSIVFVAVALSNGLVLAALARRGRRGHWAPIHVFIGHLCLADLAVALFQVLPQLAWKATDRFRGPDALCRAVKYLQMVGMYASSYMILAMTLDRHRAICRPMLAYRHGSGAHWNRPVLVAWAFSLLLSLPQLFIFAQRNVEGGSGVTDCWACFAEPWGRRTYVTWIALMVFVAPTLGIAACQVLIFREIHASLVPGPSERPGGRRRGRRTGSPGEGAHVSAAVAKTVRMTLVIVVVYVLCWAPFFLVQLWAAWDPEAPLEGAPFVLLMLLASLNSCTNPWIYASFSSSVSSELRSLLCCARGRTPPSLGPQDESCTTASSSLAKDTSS

PCP = type: binding
beta 1 (h) = beta 1 (h) (Homo sapiens, UniProt P08588); test: biochemical; details: read-out: % Inhibition of Control Specific Binding
Sequence of beta 1 (h) (P08588 whole entry): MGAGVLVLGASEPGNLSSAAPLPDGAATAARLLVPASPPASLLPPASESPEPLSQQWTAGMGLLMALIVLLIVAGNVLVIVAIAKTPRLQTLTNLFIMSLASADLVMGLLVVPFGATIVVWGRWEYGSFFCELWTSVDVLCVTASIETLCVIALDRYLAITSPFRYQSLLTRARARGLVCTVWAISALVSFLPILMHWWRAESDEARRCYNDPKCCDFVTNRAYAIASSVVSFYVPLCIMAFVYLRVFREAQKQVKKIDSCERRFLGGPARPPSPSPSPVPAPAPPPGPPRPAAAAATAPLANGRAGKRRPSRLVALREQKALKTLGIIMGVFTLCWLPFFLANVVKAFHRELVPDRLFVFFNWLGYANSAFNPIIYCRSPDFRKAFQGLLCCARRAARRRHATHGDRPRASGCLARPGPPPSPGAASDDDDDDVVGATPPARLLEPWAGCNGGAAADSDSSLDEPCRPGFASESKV

BRD4(2) = BRD4(2) (Homo sapiens, UniProt O60885)
[3] = test system: sigma (non-selective) (h)
alpha 1A (h) = alpha 1A (h) (Homo sapiens, UniProt P35348); test: biochemical; type: binding; details: read-out: % Inhibition of Control Specific Binding
5-HT2C (h) = 5-HT2C (h) (Homo sapiens, UniProt P28335); test: biochemical; type: binding; details: read-out: % Inhibition of Control Specific Binding
Sequence of 5-HT2C (h) (P28335 33-458): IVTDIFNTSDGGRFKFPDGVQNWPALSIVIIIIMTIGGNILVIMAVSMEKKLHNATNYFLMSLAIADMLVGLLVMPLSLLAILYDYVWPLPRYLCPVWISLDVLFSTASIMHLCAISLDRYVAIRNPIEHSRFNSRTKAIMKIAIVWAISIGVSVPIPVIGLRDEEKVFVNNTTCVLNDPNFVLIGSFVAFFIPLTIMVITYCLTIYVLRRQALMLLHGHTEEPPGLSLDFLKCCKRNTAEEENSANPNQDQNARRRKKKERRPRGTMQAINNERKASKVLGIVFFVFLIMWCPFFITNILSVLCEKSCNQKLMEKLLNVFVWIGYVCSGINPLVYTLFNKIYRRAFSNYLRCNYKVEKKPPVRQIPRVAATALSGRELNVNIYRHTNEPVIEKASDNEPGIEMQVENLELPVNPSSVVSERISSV

Cl- channel (GABA-gated) = type: binding
D3 (h) = D3 (h) (Homo sapiens, UniProt P35462); test: biochemical; details: read-out: % Inhibition of Control Specific Binding
Sequence of D3 (h) (P35462 whole entry): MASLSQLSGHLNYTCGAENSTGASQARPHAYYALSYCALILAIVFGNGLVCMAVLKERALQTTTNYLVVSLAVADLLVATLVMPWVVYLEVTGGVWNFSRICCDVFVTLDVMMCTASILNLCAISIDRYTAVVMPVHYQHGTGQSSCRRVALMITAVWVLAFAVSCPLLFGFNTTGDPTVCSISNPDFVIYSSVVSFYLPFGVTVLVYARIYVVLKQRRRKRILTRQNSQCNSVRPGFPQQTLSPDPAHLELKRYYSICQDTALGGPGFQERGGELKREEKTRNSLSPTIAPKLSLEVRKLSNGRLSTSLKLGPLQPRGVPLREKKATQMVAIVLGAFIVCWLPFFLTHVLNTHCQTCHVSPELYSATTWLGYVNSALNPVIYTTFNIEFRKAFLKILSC

BAZ2A = target: T1, BAZ2A (Homo sapiens, UniProt Q9UIF9); type: binding
T1 construct: Human BRDs were subcloned into bacteria-expressing vectors; made in house
T1 sequence (Q9UIF9 1793-1897 limits assumed): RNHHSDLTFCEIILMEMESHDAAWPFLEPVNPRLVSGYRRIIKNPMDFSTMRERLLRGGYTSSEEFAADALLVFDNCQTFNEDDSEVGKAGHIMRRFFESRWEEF

5-HT1B = 5-HT1B (Rattus norvegicus, UniProt P28564); test: biochemical; details: read-out: % Inhibition of Control Specific Binding
5-HT4e (h) = 5-HT4e (h) (Homo sapiens, UniProt Q13639); test: biochemical; details: read-out: % Inhibition of Control Specific Binding
BRD2(1) = BRD2(1) (Homo sapiens, UniProt P25440)
Sequence of BRD2(1) (P25440 74-180 limits assumed): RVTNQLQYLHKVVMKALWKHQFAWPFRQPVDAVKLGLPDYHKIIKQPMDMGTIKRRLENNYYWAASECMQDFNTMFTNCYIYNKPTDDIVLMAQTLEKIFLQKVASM

glucagon (h) = glucagon (h) (Homo sapiens, UniProt P47871); test: biochemical; details: read-out: % Inhibition of Control Specific Binding
KASUMI-1 = test: cells; type: cell-based, human; details: Homo sapiens, Kasumi 1, 72 h, read-out: IC50, cell proliferation
SKCa channel = type: binding
[4] = target: Ca2+ channel (L, dihydropyridine site) (Rattus norvegicus, UniProt P22002); test: biochemical; details: read-out: % Inhibition of Control Specific Binding
Sequence of Ca2+ channel (L, dihydropyridine site) (P22002 whole entry, looked up): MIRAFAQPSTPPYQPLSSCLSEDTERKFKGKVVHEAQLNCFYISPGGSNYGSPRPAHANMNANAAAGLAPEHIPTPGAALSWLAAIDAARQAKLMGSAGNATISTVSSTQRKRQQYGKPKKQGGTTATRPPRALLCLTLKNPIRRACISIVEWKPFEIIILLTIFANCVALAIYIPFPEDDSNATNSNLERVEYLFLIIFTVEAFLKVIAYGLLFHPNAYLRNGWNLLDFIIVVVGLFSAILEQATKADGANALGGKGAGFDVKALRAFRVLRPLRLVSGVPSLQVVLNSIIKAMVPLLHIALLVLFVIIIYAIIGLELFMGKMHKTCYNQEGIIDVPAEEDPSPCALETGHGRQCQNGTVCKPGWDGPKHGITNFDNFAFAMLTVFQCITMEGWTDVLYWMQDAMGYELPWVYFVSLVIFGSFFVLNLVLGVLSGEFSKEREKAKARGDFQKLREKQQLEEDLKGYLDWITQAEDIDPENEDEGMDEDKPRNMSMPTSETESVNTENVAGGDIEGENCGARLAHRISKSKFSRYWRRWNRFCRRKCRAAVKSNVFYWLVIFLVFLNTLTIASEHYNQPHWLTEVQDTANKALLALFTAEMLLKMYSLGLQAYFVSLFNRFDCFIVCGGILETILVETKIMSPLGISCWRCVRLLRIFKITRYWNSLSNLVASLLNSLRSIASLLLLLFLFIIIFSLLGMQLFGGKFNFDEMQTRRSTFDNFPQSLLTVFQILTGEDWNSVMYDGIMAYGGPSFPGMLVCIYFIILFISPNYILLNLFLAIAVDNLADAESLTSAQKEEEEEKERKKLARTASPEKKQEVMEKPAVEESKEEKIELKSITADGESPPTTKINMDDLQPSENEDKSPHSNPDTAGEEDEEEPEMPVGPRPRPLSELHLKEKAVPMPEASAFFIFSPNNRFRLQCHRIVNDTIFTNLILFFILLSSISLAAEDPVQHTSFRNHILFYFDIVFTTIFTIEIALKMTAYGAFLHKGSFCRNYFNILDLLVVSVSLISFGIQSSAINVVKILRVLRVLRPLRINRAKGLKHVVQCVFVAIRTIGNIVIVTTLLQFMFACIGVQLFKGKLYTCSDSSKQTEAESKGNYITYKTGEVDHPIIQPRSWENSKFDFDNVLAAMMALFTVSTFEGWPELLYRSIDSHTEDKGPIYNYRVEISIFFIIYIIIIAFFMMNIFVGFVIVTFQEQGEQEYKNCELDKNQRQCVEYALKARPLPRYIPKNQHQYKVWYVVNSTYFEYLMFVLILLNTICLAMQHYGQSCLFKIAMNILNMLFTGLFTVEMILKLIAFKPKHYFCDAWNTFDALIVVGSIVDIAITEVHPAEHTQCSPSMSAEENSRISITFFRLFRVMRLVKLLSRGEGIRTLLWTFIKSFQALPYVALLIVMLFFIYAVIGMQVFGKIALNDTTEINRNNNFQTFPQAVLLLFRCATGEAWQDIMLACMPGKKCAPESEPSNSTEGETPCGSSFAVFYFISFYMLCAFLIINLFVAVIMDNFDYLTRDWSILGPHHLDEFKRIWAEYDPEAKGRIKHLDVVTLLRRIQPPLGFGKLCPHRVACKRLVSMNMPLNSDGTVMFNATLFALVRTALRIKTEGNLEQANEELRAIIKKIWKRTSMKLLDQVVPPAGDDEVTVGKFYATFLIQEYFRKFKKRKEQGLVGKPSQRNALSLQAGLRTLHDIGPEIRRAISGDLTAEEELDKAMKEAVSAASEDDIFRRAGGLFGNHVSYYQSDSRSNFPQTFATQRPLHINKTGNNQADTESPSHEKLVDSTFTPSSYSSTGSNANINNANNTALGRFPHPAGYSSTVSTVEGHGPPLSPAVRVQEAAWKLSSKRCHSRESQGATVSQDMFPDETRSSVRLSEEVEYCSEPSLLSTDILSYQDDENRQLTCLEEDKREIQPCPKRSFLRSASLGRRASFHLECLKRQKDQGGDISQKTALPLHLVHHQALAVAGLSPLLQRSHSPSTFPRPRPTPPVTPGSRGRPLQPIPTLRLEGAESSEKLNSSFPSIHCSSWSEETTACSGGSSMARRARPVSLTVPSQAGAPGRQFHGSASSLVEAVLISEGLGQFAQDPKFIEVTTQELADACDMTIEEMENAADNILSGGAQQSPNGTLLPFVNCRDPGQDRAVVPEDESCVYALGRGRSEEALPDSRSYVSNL

delta 2 (DOP) (h) = delta 2 (DOP) (h) (Homo sapiens, UniProt P41143); test: biochemical; details: read-out: % Inhibition of Control Specific Binding
TNF-alpha (h) = test: CEREP binding, agonist radioligand; parameters: species or system human
M1 (h) = M1 (h) (Homo sapiens, UniProt P11229); test: biochemical; details: read-out: % Inhibition of Control Specific Binding
ETA (h) = ETA (h) (Homo sapiens, UniProt P25101); test: biochemical; details: read-out: % Inhibition of Control Specific Binding
APJ (apelin) (h) = APJ (apelin) (h) (Homo sapiens, UniProt P35414); test: biochemical; details: read-out: % Inhibition of Control Specific Binding
B2 (h) = B2 (h) (Homo sapiens, UniProt P30411); test: biochemical; details: read-out: % Inhibition of Control Specific Binding
A3 (h) = A3 (h) (Homo sapiens, UniProt P0DMS8); test: biochemical; details: read-out: % Inhibition of Control Specific Binding
GABAB(1b) (h) = GABAB(1b) (h) (Homo sapiens, UniProt Q9UBS5); test: biochemical; details: read-out: % Inhibition of Control Specific Binding
MC1 = MC1 (Mus musculus, UniProt Q01727); test: biochemical; details: read-out: % Inhibition of Control Specific Binding
TR (TH) = type: binding
kappa (KOP) = kappa (KOP) (Rattus norvegicus, UniProt P34975); test: biochemical; details: read-out: % Inhibition of Control Specific Binding
Sequence of kappa (KOP) (P34975 whole entry): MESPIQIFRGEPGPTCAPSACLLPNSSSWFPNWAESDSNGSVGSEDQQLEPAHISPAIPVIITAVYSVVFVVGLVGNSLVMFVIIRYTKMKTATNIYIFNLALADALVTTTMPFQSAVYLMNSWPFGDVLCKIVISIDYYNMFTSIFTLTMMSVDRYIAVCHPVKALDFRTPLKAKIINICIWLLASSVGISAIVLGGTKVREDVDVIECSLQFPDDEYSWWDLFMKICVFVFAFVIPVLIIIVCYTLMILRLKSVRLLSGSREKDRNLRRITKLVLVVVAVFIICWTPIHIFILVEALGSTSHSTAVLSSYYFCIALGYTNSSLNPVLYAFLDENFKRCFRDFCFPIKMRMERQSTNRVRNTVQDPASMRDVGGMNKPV

BRD4(1) = BRD4(1) (Homo sapiens, UniProt O60885); type: binding
[5] = test system: K562, KASUMI-1, MV4;11, and OCI-AML3; type: cell-based, human
A2A (h) = A2A (h) (Homo sapiens, UniProt P29274); test: biochemical; details: read-out: % Inhibition of Control Specific Binding
[6] = target: choline transporter (CHT1) (h) (Homo sapiens, UniProt Q9GZV3); test: biochemical; type: binding; details: read-out: % Inhibition of Control Specific Binding
alpha 2B (h) = alpha 2B (h) (Homo sapiens, UniProt P18089); test: biochemical; details: read-out: % Inhibition of Control Specific Binding
UT (h) = UT (h) (Homo sapiens, UniProt Q9UKP6); test: biochemical; details: read-out: % Inhibition of Control Specific Binding
Sequence of UT (h) (Q9UKP6 whole entry): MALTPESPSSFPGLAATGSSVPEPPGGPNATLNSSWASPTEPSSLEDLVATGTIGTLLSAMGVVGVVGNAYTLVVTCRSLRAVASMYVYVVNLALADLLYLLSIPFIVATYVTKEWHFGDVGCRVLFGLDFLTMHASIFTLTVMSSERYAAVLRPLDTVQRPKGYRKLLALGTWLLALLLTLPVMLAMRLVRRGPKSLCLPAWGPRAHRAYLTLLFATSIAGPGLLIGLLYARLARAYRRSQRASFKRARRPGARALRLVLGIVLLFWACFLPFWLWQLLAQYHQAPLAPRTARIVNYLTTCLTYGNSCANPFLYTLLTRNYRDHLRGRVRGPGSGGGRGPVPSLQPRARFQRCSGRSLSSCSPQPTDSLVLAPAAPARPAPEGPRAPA

beta 2 (h) = beta 2 (h) (Homo sapiens, UniProt P07550); test: biochemical; details: read-out: % Inhibition of Control Specific Binding
MT1 (ML1A) (h) = MT1 (ML1A) (h) (Homo sapiens, UniProt P48039); test: biochemical; details: read-out: % Inhibition of Control Specific Binding

CCOC(=O)Nc1cc(-c2ccc(C)c(NS(C)(=O)=O)c2)nn2c(C)nnc12 [BSP, ethyl (3-methyl-6-(4-methyl-3-(methylsulfonamido)phenyl)-[1,2,4]triazolo[4,3-b]pyridazin-8-yl)carbamate]
growth inhibition (NCI-60 tumor cell lines): strong growth inhibition | binding by BLI [1]: broad activity against the BRDs of diverse families | % Inhibition of Control Specific Binding [2]: -8 | inhibition at 10 µM (V2 (h)): -11% | % Inhibition of Control Specific Binding (PCP): -6 | inhibition at 10 µM (beta 1 (h)): 4% | N (BRD4(2)): 0.94 ± 0.001 | TΔS (BRD4(2)): 3.17 kcal/mol | ΔG (BRD4(2)): -9.77 kcal/mol | ΔH^obs (BRD4(2)): -6.60 ± 0.018 kcal/mol | % Inhibition of Control Specific Binding [3]: -13 | inhibition at 10 µM (alpha 1A (h)): 7% | inhibition at 10 µM (5-HT2C (h)): 2% | % Inhibition of Control Specific Binding (Cl- channel (GABA-gated)): 39 | inhibition at 10 µM (D3 (h)): -2% | N (BAZ2A): 1.05 ± 0.025 | TΔS (BAZ2A): 4.12 kcal/mol | ΔG (BAZ2A): -7.16 kcal/mol | ΔH^obs (BAZ2A): -3.04 ± 0.095 kcal/mol | inhibition at 10 µM (5-HT1B): -13% | inhibition at 10 µM (5-HT4e (h)): 5% | N (BRD2(1)): 1.00 ± 0.003 | TΔS (BRD2(1)): 1.34 kcal/mol | ΔG (BRD2(1)): -9.25 kcal/mol | ΔH^obs (BRD2(1)): -7.90 ± 0.034 kcal/mol | inhibition at 10 µM (glucagon (h)): -8% | IC50 (KASUMI-1): 207 nM | % Inhibition of Control Specific Binding (SKCa channel): -15 | inhibition at 10 µM [4]: -4% | inhibition at 10 µM (delta 2 (DOP) (h)): 7% | % Inhibition of Control Specific Binding (TNF-alpha (h)): -7 | inhibition at 10 µM (M1 (h)): 39% | inhibition at 10 µM (ETA (h)): -1% | inhibition at 10 µM (APJ (apelin) (h)): -2% | inhibition at 10 µM (B2 (h)): -1% | inhibition at 10 µM (A3 (h)): 100% | inhibition at 10 µM (GABAB(1b) (h)): 13% | inhibition at 10 µM (MC1): 2% | % Inhibition of Control Specific Binding (TR (TH)): 11 | inhibition at 10 µM (kappa (KOP)): 17% | N (BRD4(1)): 0.94 ± 0.002 | TΔS (BRD4(1)): -1.36 kcal/mol | ΔH^obs (BRD4(1)): -11.09 ± 0.038 kcal/mol | colony formation [5]: decreased; also recorded: severely inhibited | inhibition at 10 µM (A2A (h)): 68% | inhibition at 10 µM [6]: 39% | inhibition at 10 µM (alpha 2B (h)): 2% | inhibition at 10 µM (UT (h)): -9% | inhibition at 10 µM (beta 2 (h)): 2% | inhibition at 10 µM (MT1 (ML1A) (h)): 14%
